The results in this text go back to patent publication US12503426B2, “Synthetic derivatives of oleoyl-lysophosphatidylinositol (oleoyl-LPI) and uses thereof” (LIPOVEXA SRL, priority 2017, dated 2025).

Data set [1] relates to colonic cells of the GI tract obtained from guinea pig. In words: Ex vivo GLP-1 biosynthesis and secretion, guinea pig GI tract cells. In kind it is cell-based. On the procedure: To test for this, a pregnant guinea pig was anesthetized with isoflurane and sacrificed via intra-cardial injection of pentobarbital. Colon and rectum were quickly collected and intraluminal content washed out with ice-cold HBSS. After a thorough cleansing from the faecal material, and gentle scraping of the internal mucosa, the tissue was minced into 3 to 5-millimetre pieces and resuspended into 50 ml of ice cold HBSS. Pellet was spun down and washed again in 50 ml of ice-cold HBSS. Supernatant was carefully removed, and the epithelial fragments were then resuspended for 30 minutes at 37° C. into a 5 ml solution of HEPES 25 mM, collagenase-P 1 mg/ml in HBSS, pH 7.4 at 37° C.
The tissue was then pelleted and resuspended further for about 30 to 40 additional minutes at 37° C. within a 10 ml solution of 1 mg/ml collagenase-P as above.
After the digestion, about 40 ml of pre-warmed DMEM complete media was added (FBS 10%, glucose 4.5 g/L, glutamine 4 mM, sodium pyruvate 1 mM, HEPES 25 mM, sodium bicarbonate 3.7 g/L, Pen/Strep 1× and Ciprofloxacin 10 μg/ml pH 7.4 at 37° C.). Crypts and individual cells were isolated with a […] nylon strainer, spun down at 200 g for 5 minutes, resuspended into 10 ml of DMEM complete media and plated into 20 wells of a 24-well plate coated with a 3D gel of 3 mg/ml Matrigel (BD, Biosciences, Oxford, UK). After one day of incubation at 37° C. 5% CO2 in a humidified incubator, cells were washed with 500 μl of warm HBSS, and treated with 250 μl DMEM serum free (Complete medium without FBS) additioned with KR-62436 10 μg/ml and individually the following drugs or compounds: Forskolin and IBMX (20 μM each), oleoyl-LPI, and the two oleoyl-LPI analogs and/or derivatives ps297b (prepared as described in example 13) and ps316a (prepared as described in example 22) were all tested in quadruplicate at 20 μM.
After a 2-hour long incubation at 37 C 5% CO2, the supernatants were collected on ice, and quickly stored at […]. Active GLP-1 levels (7-37 amide and 7-36) were quantified on 50 μl of supernatant with an ELISA commercial kit (EMD Millipore). DMSO was used as a negative control, the combination of Forskolin and IBMX was included as positive control activators GLP-1. GLP-1 levels measured were standardized against the DMSO control.
The EC50 levels each one of oleoyl-LPI, compound ps297b and compound ps316a were also measured in quadruplicates at the conclusion of the 2 hour incubation. Guinea pig cells obtained as described above were also incubated with […] in quadruplicates and subjected to 2-hour long incubation at 37 C 5% CO2 as described above and EC50 levels measured.

In data set [2] the test system is NCI-H716 cells. In words: GLP-1 secretion in NCI-H716 cells, in vitro human L cells model (Examples 30-33). In kind it is cell-based. How it is done: To evaluate the GLP-1 biosynthesis and secreting capabilities of the compounds of formula I in vitro using the human-derived cell line NCI-H716, 50,000 such cells were seeded per well of a 24-well plate pre-coated with a thin layer of Matrigel (0.15 mg/ml) in RPMI complete (RPMI additioned with FBS 10%, Glucose 2 g/L, Glutamine 4 mM, Sodium Bicarbonate 2 g/L, Pen/Strep 1× pH 7.4 at 37° C.) and incubated at 37° C. in humidified 5% CO2 atmosphere to induce endocrine differentiation.
After 48 hours, media was withdrawn and cells washed once with warm HBSS (Hank's balanced salt solution) and then incubated in duplicate for 2 hours with the different dilutions of the oleoyl-LPI, OEA, DMSO (as negative control), a test compound of formula I, and KR-62436 10 μg/ml, all dissolved in RPMI serum free (RPMI complete without FBS) at 37° C. in humidified 5% CO2 incubator. Supernatant were quickly collected on ice and stored at −80° C. before quantification of GLP-1 with a commercial ELISA (EMD Millipore) specific for active-GLP-1 species.
To evaluate the GLP-1 biosynthesis and secreting capabilities of the compounds of formula I in vitro using the human-derived cell line NCI-H716, 50,000 such cells were seeded per well of a 24-well plate pre-coated with a thin layer of Matrigel (0.15 mg/ml) in RPMI complete (RPMI additioned with FBS 10%, Glucose 2 g/L, Glutamine 4 mM, Sodium Bicarbonate 2 g/L, Pen/Strep 1×pH 7.4 at 37° C.) and incubated at 37° C. in humidified 5% CO2 atmosphere to induce endocrine differentiation.
After 48 hours, media was withdrawn and cells washed twice with pre-warm HBSS (Hank's balanced salt solution) and then incubated in duplicate for 2 hours with 250 μl of 20 μM of either oleoyl-LPI, DMSO (as negative control) or a test compound of formula I, and […], all dissolved in RPMI serum free (RPMI complete without FBS) at 37° C. in humidified 5% CO2 incubator. Compounds of formula I tested were ps297b, ps316a, ps318a, ps319a, ps321a and ps323.
Supernatant were quickly collected on ice and stored at −80° C. before quantification of GLP-1 with a commercial ELISA (EMD Millipore) specific for active-GLP-1 species (e.g., GLP-1 (7-36) amide) and […]).
Compounds of formula I were tested for GLP-1 secretion in NCI-H716 cells essentially as describe in examples 30 and 31 above. EC50 GLP-1 secretion readout results were standardized relative to maximum GLP-1 secretion obtained with oleoyl-LPI. EC50 readout results were rated as low GLP-1 secretion activity (0-20% of maximum GLP-1 secretion achieved with oleoyl-LPI), moderate (21-79% of maximum GLP-1 secretion achieved with oleoyl-LPI), and high GLP-1 activity (80% and more of maximum GLP-1 secretion achieved with oleoyl-LPI). Table 3 also outlines the R1, R2 and R3 substituents of the compounds of formula I.

Data set [3] relates to Danio rerio larvae. In words: Zebrafish toxicity test. Conditions: two-days old larvae treated for 3 days; heartbeat, movement, teratogenicity; preliminary experiment. In kind it is in vivo. The text has this: About two-days old Danio rerio larvae may be dechorionated and treated for about 3 days with increasing amount of any synthetic compound of formula I or salt or solvate thereof of this invention. The cardiotoxicity effect of the compound or salt or solvate may be assessed by measuring the heartbeat, the movement, and teratogenicity (hatching rate, mortality rate (LD50). The experiment may be repeated for three times or more times e.g., with about 10 larvae per concentration tested.
Two-days old Danio rerio larvae were dechorionated and treated for 3 days with increasing amount of a synthetic compound of formula I such as ps297b.

Data set [4] has as its system wild type mice. In words: Oral Glucose GLP-1 secretion test. It is filed as in vivo. To be noted: oral gavage 20 mg/kg, samples 2 minutes post glucose load, N=3. How it is done: Active GLP-1 levels were measured in samples collected 2 minutes post glucose load. N=3
In a slight variation on the above method GLP-1 measurement in mice can be carried out by Peripheral GLP-1 stimulation and measurement in C57bl/6J mice. After 6 hours of fasting, the mice are weighed, and drug volumes are calculated. […] At 2 minutes post-glucose gavage, a blood sample is collected from the submandibular vein into an EDTA coated prechilled tube containing a panel of protease inhibitors. The plasma is separated by spinning at 1,500 g for 20 minutes at 4 C. the plasma is then collected and snap frozen on dry ice and store at −20 C before proceeding with hormone quantification. For hormone quantification the samples are thawed and total GLP-1 levels are quantified, GLP1(7-36)amide+GLP-1(9-36)amide, in 20 μL of plasma with the commercial ELISA kit from Millipore EZGLP1T-36K. This method is also described in Windelov J A et al Diabetologia. […]
Mice were sampled at about 2 minutes post glucose load, 20 μl of arterial blood may be sampled in K3-EDTA and KR-62436 containing tubes to collect plasma and samples are quickly store at −80° C. Plasma samples of 4 to 6 animals may be pool together and assayed to quantify the levels of active GLP-1 (such as GLP-1 (7-36)amide) using commercially available ELISA kits. […] Active GLP-1 levels were measured in samples collected 2 minutes post glucose load. […]

The EC50 is the concentration that produces a half-maximal response. With `CCCCCCCC/C=C\CCCCCCCC(=O)Nc1ccc(-c2nnn[nH]2)cc1` [ps297b], the “GLP-1 biosynthesis and secretion ex vivo” value in data set [1] (20 μM, 2 hours, standardized against DMSO control) is “stimulated biosynthesis and secretion”. In data set [1] (2 hours incubation ex vivo), the “stability after incubation ex vivo” value was “remained stable after 2 hours incubation ex vivo”. Besides, in data set [1] (Cavia porcellus, ex vivo incubation 2 hours, quadruplicates), the EC50 came out at 30 µM. Moreover, the “GLP-1 biosynthesis and secretion from NCI-H716 L cells” value in data set [2] (20 μM, 2 hours, normalized against DMSO vehicle control) is “able to mediate GLP-1 biosynthesis and secretion”. Further, the “level of GLP-1 biosynthesis and secretion compared with oleoyl-LPI” value in data set [2] (NCI-H716 cells, 20 μM, 2 hours) was “comparable to that of oleoyl-LPI”. Also, in data set [2] (NCI-H716 cells, standardized relative to maximum GLP-1 secretion obtained with oleoyl-LPI), the “GLP-1 secretion Activity relative to oleoyl-LPI” value is “High (high GLP-1 activity (80% and more of maximum GLP-1 secretion achieved with oleoyl-LPI))”. For the same compound, the “activity in inducing and/or increasing secretion of GLP-1 from cells of the GI tract” value in data set [2] (summary statement, compared with oleoyl-LPI) is reported as “equal to or higher than oleoyl-LPI”. Besides, in data set [3], the “concentration with no sign of toxicity” value is given as “up to 200 micromolar”. The “GLP-1 release (active GLP-1 levels)” value in data set [4] was “increasing GLP-1 release”.
